In experiment [1] the target is T1, thyroxine binding globulin (TBG) (Homo sapiens, UniProt P05543).
T1 construct: from tissue; host or cells: whole serum
T1 sequence (P05543 21-415): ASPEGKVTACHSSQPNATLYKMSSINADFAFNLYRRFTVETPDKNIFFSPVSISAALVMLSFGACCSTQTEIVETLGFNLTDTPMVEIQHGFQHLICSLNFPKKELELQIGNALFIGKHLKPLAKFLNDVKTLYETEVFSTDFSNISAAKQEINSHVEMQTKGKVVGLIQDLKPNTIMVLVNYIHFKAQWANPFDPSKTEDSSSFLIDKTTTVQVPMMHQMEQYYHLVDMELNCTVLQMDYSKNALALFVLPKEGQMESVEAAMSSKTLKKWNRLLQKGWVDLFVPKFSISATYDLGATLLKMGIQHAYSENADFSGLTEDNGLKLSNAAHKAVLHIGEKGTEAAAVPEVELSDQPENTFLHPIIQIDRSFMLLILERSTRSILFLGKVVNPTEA
As to the kind of experiment: T4 displacement from T4 binding proteins in whole serum (agarose gel electrophoresis, densitometry). The settings on record: increasing concentrations of ligand. From the text:
3.2.3.3. […] After the electrophoresis, the proteins were transferred by capillary diffusion to a nitrocellulose membrane and subjected to phosphor imaging (Typhoon 8600; […], Amersham Biosciences). The two known T4-binding proteins, transthyretin and thyroxine binding globulin (TBG), were distinctly visualized, while albumin binding appears as a radioactive smear between them.

Experiment [2] addresses T2, V30M transthyretin (Homo sapiens, UniProt P02766, V50M).
T2 construct: made in house
As to the kind of experiment: Mass spectrometric analysis of subunit exchange. Type of experiment: biochemical. The settings on record: 2-fold molar excess of ligand, data not shown. On the procedure:
4.2 Mass spectrometric analysis of subunit exchange. Recombinant wild type, L55P and V30M transthyretin variants were biosynthetically labelled with isotopes [^15N] and [^15N, ^13C] as previously described (Keetch C A et al, 2005). Immediately prior to analysis, proteins were buffer exchanged into 20 mM ammonium acetate, pH 7.0 using Micro Biospin columns (Bio-Rad, UK). The subunit composition of transthyretin was monitored as a function of time by incubating an equimolar solution (4.4 μM) of [^15N] and [^15N, ^13C] labelled proteins in the presence of 2-fold molar excess of 4ajm15 in DMSO or 2.5% DMSO alone as a control. Each experiment was carried out in triplicate at room temperature and at 4° C. as well, since it is known that subunit exchange is accelerated at low temperatures. Nanoflow ESMS was performed on a QToF2 instrument (Waters/Micromass UK, Ltd.) modified for high mass operation (Sobott et al, (2002)) and calibrated externally using caesium iodide (100 mg/ml). Each solution, 1.5 μl, was electrosprayed from gold coated borosilicate capillaries prepared in-house as described (Nettleton E J, et al, 1998). […]

The next experiment concerns the target T3, L55P transthyretin (Homo sapiens, UniProt P02766, L75P).
T3 construct: made in house
As to the kind of experiment: Mass spectrometric analysis of ligand dissociation under increasing cone voltage. Type of experiment: binding. The conditions noted are these: equimolar 4.4 μM with wild type, 2 fold excess of ligand. From the text: (§1) 4.3. Mass spectrometric analysis of dissociation of 4ajm15 from wild type and amyloidogenic variant transthyretin. ESMS spectra were acquired under increasing cone voltage conditions to induce stepwise dissociation of the ligand from wild type transthyretin and amyloidogenic variants V30M and L55P transthyretin. As the cone voltage increases splitting becomes apparent in the tetramer peaks, corresponding to apo (protein alone) and holo (protein+ligand) transthyretin as ligand begins to dissociate.
(§2) L55P transthyretin and [^15N, ^13C] wild type transthyretin in a 2 fold excess of 4ajm15. […] In spectrum β the onset of 4ajm15 dissociation from wild type tetramer is observed (a) while no ligand dissociation is observed from L55P transthyretin. Dissociation from wild type transthyretin progresses with increasing collisional energy in spectrum γ, but it is not until spectrum δ, where approximately 50% of the wild type is apo, that ligand dissociation from L55P transthyretin is observed (a).

Experiment [3] has as its target T2, V30M transthyretin. Described as above. Format: binding. The settings on record: equimolar 4.4 μM with wild type, 2 fold excess of ligand.
Source text: as §1
The onset of ligand dissociation from V30M transthyretin occurs at the same energy level but the peak height corresponding to apo V30M transthyretin is lower than that for wild type (FIG. 17). Since these two species have very similar amino acid sequences (and therefore similar charging during MS ionisation) they are able to act as internal standards for each other. Therefore a lower peak height for apo V30M compared to apo WT is indicative of a lower proportion of apo V30M than apo WT. At increasing energy levels apo V30M is consistently lower relative to apo WT and as ligand dissociation from WT is complete, a proportion of holo V30M is still present.
V30M transthyretin and [^15N, ^13C] wild type transthyretin in a 2 fold excess of ligand. […]

For the next experiment, the target named is T4, transthyretin (Homo sapiens, UniProt P02766).
T4 construct: Native tetrameric transthyretin was purified from fractionated human plasma; from tissue; host or cells: human plasma
As to the kind of experiment: Stopped flow analysis of the kinetics of binding by transthyretin. The settings on record: 2 μM protein, 10 μM ligand, PBS pH 7.4, 5% DMSO, 20° C. The method, then: 3.2.2 Stopped flow analysis of the kinetics of 4ajm15 binding by transthyretin. The kinetics of transthyretin binding to 4ajm15 were evaluated with a Bio-Logic SFM-300 stopped flow device coupled to a fluorescence detection system (Claix, France) using a cell path length of 1.5 mm. The excitation wavelength was 280 nm and emission was measured at wavelengths greater than 320 nm using a cut off filter. The experiments were performed at 20° C. in PBS pH 7.4 containing 5% DMSO with a final protein concentration of 2 μM in the presence of 10 μM 4ajm15. The kinetic traces fit well to a single-exponential function with a time constant of 2.17 s (±0.02 s). Transthyretin thus binds 4ajm15 very rapidly at physiological pH with the plateau of the quenching reaction being reached after only ˜11 sec.

In the next experiment the target is wild type transthyretin (Homo sapiens, UniProt P02766). As to the kind of experiment: Mass spectrometric analysis of ligand dissociation under increasing cone voltage. Type of experiment: binding. Also on record: made in house.
Source text: as §1, §2
V30M transthyretin and [^15N, ^13C] wild type transthyretin in a 2 fold excess of ligand. In A, at the onset of 4ajm15 dissociation (spectrum β) the peak height corresponding to apo V30M transthyretin is lower than that for wild type (labelled a and a respectively) for each charge state. At high energy level (γ), ligand dissociation from wild type is complete while a proportion of […] V30M remains (h). […]

With `O=C(O)c1ccccc1Nc1cc(Cl)c(OCCCCCCCCCCCOc2c(Cl)cc(Nc3ccccc3C(=O)O)cc2Cl)c(Cl)c1` [4ajm15, 2,2′-(4,4′-(undecane-1,11-diylbis(oxy))bis(3,5-dichloro-4,1-phenylene))bis(azanediyl)dibenzoic acid], the “effect on binding of T4 by TBG” value in experiment [1] is listed as “did not affect”. Also, at V30M transthyretin [2], the “subunit exchange of V30M transthyretin” value was “Exactly the same effect”. Further, at L55P transthyretin, the “dissociation of ligand from L55P transthyretin” value is listed as “only at higher collisional energy than wild type” and the “proportion of wild type that is apo when dissociation from L55P is first observed (spectrum δ)” value is “approximately 50%”. Further, the “peak height of apo V30M transthyretin at onset of dissociation (spectrum β)” value on V30M transthyretin [3] is recorded as about 45%. Further, at transthyretin, the “time constant of binding (single-exponential fit)” value was 2.17 s and the “time to plateau of the quenching reaction” value was about 11 s. For the same compound, the “peak height of apo wild type transthyretin at onset of dissociation (spectrum β)” value on wild type transthyretin (equimolar 4.4 μM with V30M, 2 fold excess of ligand) is about 75%. Moreover, at wild type transthyretin (wild type versus V30M and L55P, increasing cone voltage), the “relative binding avidities for ligand among transthyretin forms” value is listed as “wild type transthyretin<V30M transthyretin<L55P transthyretin”.
